Results: patent US7776833B2, “Use of cyclic bioisosters of purine system derivatives for treating diseases produced by disorders of niterergic and dopaminergic systems” (priority 2003, dated 2010)

Tests used:
Type in all cases: in vivo, Wistar rats
[1] = test system: nitric oxide synthase (NOS); assay: Nitric oxide synthase activity in brain regions, radiometric [3H]L-citrulline method; details: 3 x 20 mg/kg intramuscularly
Method in brief: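 Rat cortex, hippocampus, mesencephalon, striatum, brainstem, hypothalamus and cerebellum were homogenized in 20 mM HEPES pH 7.5, and the 11000 g supernatant was incubated 15-60 min at 37 °C with [3H]L-arginine, 0.2 mM CaCl2, FAD, FMN, NADPH and BH4. [3H]L-citrulline was counted after Dowex removal of arginine. Ca2+-dependent/independent activity was split using EDTA ± L-NAME, per mg Bradford protein.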

[2] = test system: physical dependence from morphine (morphine abstinence); assay: Morphine abstinence syndrome, signs scored in the open field test; details: Morphine − (morphine + compound); compound 3 x 20 mg/kg intramuscularly; one value for the three compounds
[3] = test system: nitrites and nitrates (NOx-); assay: Measurement of nitrates/nitrites (NOx-) in brain regions after the morphine abstinence experiment; details: 3 x 20 mg/kg intramuscularly
Method in brief: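 Rat brain regions homogenized in 20 mM HEPES pH 7.5 at 4 °C; deproteinized supernatants treated with nitrate reductase, 25 μM NADPH, 25 μM FAD (37 °C, 30 min), then DAN in acid; naphthotriazole fluorescence (ex 365/em 405 nm) against sodium nitrate standard, expressed as nmol/mg protein (Bradford).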

[4] = Groups Nos. 3-14, compound without morphine, one value for all 12 compounds
[5] = Morphine + compound, one value for the three compounds

Nc1cnc2c(=O)n([C@@H]3O[C@H](CO)[C@@H](O)[C@H]3O)[nH]c(=O)c2n1.[Na] [Compound 21, sodium salt of 3-amino-7-(β-D-ribofuranosile)pyrazino[2,3-d]-6H-pyridazine-5,8-dione]
Activity of NOS, hippocampus [1, 4]: 3.09 ± 0.16 nmol/min/mg of protein
Activity of NOS, hypothalamus [1, 4]: 5.45 ± 0.24 nmol/min/mg of protein
Activity of NOS, midbrain [1, 4]: 2.60 ± 0.29 nmol/min/mg of protein
Activity of NOS, striatum [1, 4]: 1.26 ± 0.08 nmol/min/mg of protein
Activity of NOS, hippocampus [1, 5]: 2.33 ± 0.11 nmol/min/mg of protein
Activity of NOS, hypothalamus [1, 5]: 5.47 ± 0.32 nmol/min/mg of protein
Activity of NOS, midbrain [1, 5]: 2.03 ± 0.31 nmol/min/mg of protein
Activity of NOS, striatum [1, 5]: 1.21 ± 0.10 nmol/min/mg of protein
Authentic differences (ξ-square criterion) in appearance of signs of abstinence: <<Wet dog>> shakes [2]: 0.7821
Authentic differences (ξ-square criterion) in appearance of signs of abstinence: Aggression [2]: 0.7921
Authentic differences (ξ-square criterion) in appearance of signs of abstinence: Convulsions [2]: 0.3456
Authentic differences (ξ-square criterion) in appearance of signs of abstinence: Diarrhea [2]: 0.0067
Authentic differences (ξ-square criterion) in appearance of signs of abstinence: Dyspnea [2]: 0.0567
Authentic differences (ξ-square criterion) in appearance of signs of abstinence: Forelimb jogging [2]: 0.6745
Authentic differences (ξ-square criterion) in appearance of signs of abstinence: Grit with teeth [2]: 0.2994
Authentic differences (ξ-square criterion) in appearance of signs of abstinence: Mastication [2]: 0.1975
Authentic differences (ξ-square criterion) in appearance of signs of abstinence: Piloerection [2]: 0.2567
Authentic differences (ξ-square criterion) in appearance of signs of abstinence: Ptosis [2]: 0.0105
Authentic differences (ξ-square criterion) in appearance of signs of abstinence: Rhinorrhea [2]: 0.2131
Authentic differences (ξ-square criterion) in appearance of signs of abstinence: Squeak when touched [2]: 0.1968
Nitrites, brainstem [3, 4]: 6.31 ± 0.58 nmol/mg of protein
Nitrites, cerebellum [3, 4]: 6.66 ± 0.63 nmol/mg of protein
Nitrites, cerebral cortex [3, 4]: 4.31 ± 0.37 nmol/mg of protein
Nitrites, hippocampus [3, 4]: 6.47 ± 0.72 nmol/mg of protein
Nitrites, hypothalamus [3, 4]: 6.77 ± 0.83 nmol/mg of protein
Nitrites, midbrain [3, 4]: 6.65 ± 0.70 nmol/mg of protein
Nitrites, striatum [3, 4]: 6.11 ± 0.29 nmol/mg of protein
Nitrites, brainstem [3, 5]: 7.07 ± 0.85 nmol/mg of protein
Nitrites, cerebellum [3, 5]: 5.76 ± 0.49 nmol/mg of protein
Nitrites, cerebral cortex [3, 5]: 4.62 ± 0.27 nmol/mg of protein
Nitrites, hippocampus [3, 5]: 5.27 ± 0.41 nmol/mg of protein
Nitrites, hypothalamus [3, 5]: 6.87 ± 0.75 nmol/mg of protein
Nitrites, midbrain [3, 5]: 5.99 ± 0.58 nmol/mg of protein
Nitrites, striatum [3, 5]: 3.57 ± 0.42 nmol/mg of protein

O=C([O-])c1cnc2c(=O)[nH]n([C@@H]3O[C@H](CO)[C@@H](O)[C@H]3O)c(=O)c2n1.O=C([O-])c1cnc2c(=O)[nH]n([C@@H]3O[C@H](CO)[C@@H](O)[C@H]3O)c(=O)c2n1.[Na+].[Na+] [Compound 24, disodium salt of 2-carboxy-7-(β-D-ribofuranosile)pyrazino[2,3-d]-6H-pyridazine-5,8-dione]
Activity of NOS, hippocampus [1, 4]: 3.09 ± 0.16 nmol/min/mg of protein
Activity of NOS, hypothalamus [1, 4]: 5.45 ± 0.24 nmol/min/mg of protein
Activity of NOS, midbrain [1, 4]: 2.60 ± 0.29 nmol/min/mg of protein
Activity of NOS, striatum [1, 4]: 1.26 ± 0.08 nmol/min/mg of protein
Activity of NOS, hippocampus [1, 5]: 2.33 ± 0.11 nmol/min/mg of protein
Activity of NOS, hypothalamus [1, 5]: 5.47 ± 0.32 nmol/min/mg of protein
Activity of NOS, midbrain [1, 5]: 2.03 ± 0.31 nmol/min/mg of protein
Activity of NOS, striatum [1, 5]: 1.21 ± 0.10 nmol/min/mg of protein
Authentic differences (ξ-square criterion) in appearance of signs of abstinence: <<Wet dog>> shakes [2]: 0.7821
Authentic differences (ξ-square criterion) in appearance of signs of abstinence: Aggression [2]: 0.7921
Authentic differences (ξ-square criterion) in appearance of signs of abstinence: Convulsions [2]: 0.3456
Authentic differences (ξ-square criterion) in appearance of signs of abstinence: Diarrhea [2]: 0.0067
Authentic differences (ξ-square criterion) in appearance of signs of abstinence: Dyspnea [2]: 0.0567
Authentic differences (ξ-square criterion) in appearance of signs of abstinence: Forelimb jogging [2]: 0.6745
Authentic differences (ξ-square criterion) in appearance of signs of abstinence: Grit with teeth [2]: 0.2994
Authentic differences (ξ-square criterion) in appearance of signs of abstinence: Mastication [2]: 0.1975
Authentic differences (ξ-square criterion) in appearance of signs of abstinence: Piloerection [2]: 0.2567
Authentic differences (ξ-square criterion) in appearance of signs of abstinence: Ptosis [2]: 0.0105
Authentic differences (ξ-square criterion) in appearance of signs of abstinence: Rhinorrhea [2]: 0.2131
Authentic differences (ξ-square criterion) in appearance of signs of abstinence: Squeak when touched [2]: 0.1968
Nitrites, brainstem [3, 4]: 6.31 ± 0.58 nmol/mg of protein
Nitrites, cerebellum [3, 4]: 6.66 ± 0.63 nmol/mg of protein
Nitrites, cerebral cortex [3, 4]: 4.31 ± 0.37 nmol/mg of protein
Nitrites, hippocampus [3, 4]: 6.47 ± 0.72 nmol/mg of protein
Nitrites, hypothalamus [3, 4]: 6.77 ± 0.83 nmol/mg of protein
Nitrites, midbrain [3, 4]: 6.65 ± 0.70 nmol/mg of protein
Nitrites, striatum [3, 4]: 6.11 ± 0.29 nmol/mg of protein
Nitrites, brainstem [3, 5]: 7.07 ± 0.85 nmol/mg of protein
Nitrites, cerebellum [3, 5]: 5.76 ± 0.49 nmol/mg of protein
Nitrites, cerebral cortex [3, 5]: 4.62 ± 0.27 nmol/mg of protein
Nitrites, hippocampus [3, 5]: 5.27 ± 0.41 nmol/mg of protein
Nitrites, hypothalamus [3, 5]: 6.87 ± 0.75 nmol/mg of protein
Nitrites, midbrain [3, 5]: 5.99 ± 0.58 nmol/mg of protein
Nitrites, striatum [3, 5]: 3.57 ± 0.42 nmol/mg of protein

O=c1[nH][nH]c(=O)c2nccnc12.[Li] [Compound 26, lithium salt of pyrazino[2,3-d]-6H-pyridazine-5,8-dione]
Activity of NOS, hippocampus [1, 4]: 3.09 ± 0.16 nmol/min/mg of protein
Activity of NOS, hypothalamus [1, 4]: 5.45 ± 0.24 nmol/min/mg of protein
Activity of NOS, midbrain [1, 4]: 2.60 ± 0.29 nmol/min/mg of protein
Activity of NOS, striatum [1, 4]: 1.26 ± 0.08 nmol/min/mg of protein
Activity of NOS, hippocampus [1, 5]: 2.33 ± 0.11 nmol/min/mg of protein
Activity of NOS, hypothalamus [1, 5]: 5.47 ± 0.32 nmol/min/mg of protein
Activity of NOS, midbrain [1, 5]: 2.03 ± 0.31 nmol/min/mg of protein
Activity of NOS, striatum [1, 5]: 1.21 ± 0.10 nmol/min/mg of protein
Authentic differences (ξ-square criterion) in appearance of signs of abstinence: <<Wet dog>> shakes [2]: 0.7821
Authentic differences (ξ-square criterion) in appearance of signs of abstinence: Aggression [2]: 0.7921
Authentic differences (ξ-square criterion) in appearance of signs of abstinence: Convulsions [2]: 0.3456
Authentic differences (ξ-square criterion) in appearance of signs of abstinence: Diarrhea [2]: 0.0067
Authentic differences (ξ-square criterion) in appearance of signs of abstinence: Dyspnea [2]: 0.0567
Authentic differences (ξ-square criterion) in appearance of signs of abstinence: Forelimb jogging [2]: 0.6745
Authentic differences (ξ-square criterion) in appearance of signs of abstinence: Grit with teeth [2]: 0.2994
Authentic differences (ξ-square criterion) in appearance of signs of abstinence: Mastication [2]: 0.1975
Authentic differences (ξ-square criterion) in appearance of signs of abstinence: Piloerection [2]: 0.2567
Authentic differences (ξ-square criterion) in appearance of signs of abstinence: Ptosis [2]: 0.0105
Authentic differences (ξ-square criterion) in appearance of signs of abstinence: Rhinorrhea [2]: 0.2131
Authentic differences (ξ-square criterion) in appearance of signs of abstinence: Squeak when touched [2]: 0.1968
Nitrites, brainstem [3, 4]: 6.31 ± 0.58 nmol/mg of protein
Nitrites, cerebellum [3, 4]: 6.66 ± 0.63 nmol/mg of protein
Nitrites, cerebral cortex [3, 4]: 4.31 ± 0.37 nmol/mg of protein
Nitrites, hippocampus [3, 4]: 6.47 ± 0.72 nmol/mg of protein
Nitrites, hypothalamus [3, 4]: 6.77 ± 0.83 nmol/mg of protein
Nitrites, midbrain [3, 4]: 6.65 ± 0.70 nmol/mg of protein
Nitrites, striatum [3, 4]: 6.11 ± 0.29 nmol/mg of protein
Nitrites, brainstem [3, 5]: 7.07 ± 0.85 nmol/mg of protein
Nitrites, cerebellum [3, 5]: 5.76 ± 0.49 nmol/mg of protein
Nitrites, cerebral cortex [3, 5]: 4.62 ± 0.27 nmol/mg of protein
Nitrites, hippocampus [3, 5]: 5.27 ± 0.41 nmol/mg of protein
Nitrites, hypothalamus [3, 5]: 6.87 ± 0.75 nmol/mg of protein
Nitrites, midbrain [3, 5]: 5.99 ± 0.58 nmol/mg of protein
Nitrites, striatum [3, 5]: 3.57 ± 0.42 nmol/mg of protein

O=c1[nH]n([C@@H]2O[C@H](CO)[C@@H](O)[C@H]2O)c(=O)c2nc(Br)ncc12.[Na] [Compound 32, sodium salt of 2-bromine-7-(β-D-ribofuranosile)pyrimido[4,5-d]-6H-pyridazine-5,8-dione]
Activity of NOS, hippocampus [1, 4]: 3.09 ± 0.16 nmol/min/mg of protein
Activity of NOS, hypothalamus [1, 4]: 5.45 ± 0.24 nmol/min/mg of protein
Activity of NOS, midbrain [1, 4]: 2.60 ± 0.29 nmol/min/mg of protein
Activity of NOS, striatum [1, 4]: 1.26 ± 0.08 nmol/min/mg of protein
Activity of NOS, hippocampus [1, 5]: 2.65 ± 0.15 nmol/min/mg of protein
Activity of NOS, hypothalamus [1, 5]: 5.56 ± 0.34 nmol/min/mg of protein
Activity of NOS, midbrain [1, 5]: 1.89 ± 0.27 nmol/min/mg of protein
Activity of NOS, striatum [1, 5]: 1.34 ± 0.09 nmol/min/mg of protein
Authentic differences (ξ-square criterion) in appearance of signs of abstinence: <<Wet dog>> shakes [2]: 1.0000
Authentic differences (ξ-square criterion) in appearance of signs of abstinence: Aggression [2]: 0.8456
Authentic differences (ξ-square criterion) in appearance of signs of abstinence: Convulsions [2]: 0.5578
Authentic differences (ξ-square criterion) in appearance of signs of abstinence: Diarrhea [2]: 0.0001
Authentic differences (ξ-square criterion) in appearance of signs of abstinence: Dyspnea [2]: 0.0685
Authentic differences (ξ-square criterion) in appearance of signs of abstinence: Forelimb jogging [2]: 0.9321
Authentic differences (ξ-square criterion) in appearance of signs of abstinence: Grit with teeth [2]: 0.7003
Authentic differences (ξ-square criterion) in appearance of signs of abstinence: Mastication [2]: 0.1888
Authentic differences (ξ-square criterion) in appearance of signs of abstinence: Piloerection [2]: 0.2345
Authentic differences (ξ-square criterion) in appearance of signs of abstinence: Ptosis [2]: 0.0232
Authentic differences (ξ-square criterion) in appearance of signs of abstinence: Rhinorrhea [2]: 0.2935
Authentic differences (ξ-square criterion) in appearance of signs of abstinence: Squeak when touched [2]: 0.2035
Nitrites, brainstem [3, 4]: 6.31 ± 0.58 nmol/mg of protein
Nitrites, cerebellum [3, 4]: 6.66 ± 0.63 nmol/mg of protein
Nitrites, cerebral cortex [3, 4]: 4.31 ± 0.37 nmol/mg of protein
Nitrites, hippocampus [3, 4]: 6.47 ± 0.72 nmol/mg of protein
Nitrites, hypothalamus [3, 4]: 6.77 ± 0.83 nmol/mg of protein
Nitrites, midbrain [3, 4]: 6.65 ± 0.70 nmol/mg of protein
Nitrites, striatum [3, 4]: 6.11 ± 0.29 nmol/mg of protein
Nitrites, brainstem [3, 5]: 6.87 ± 0.81 nmol/mg of protein
Nitrites, cerebellum [3, 5]: 5.93 ± 0.54 nmol/mg of protein
Nitrites, cerebral cortex [3, 5]: 4.84 ± 0.31 nmol/mg of protein
Nitrites, hippocampus [3, 5]: 5.31 ± 0.33 nmol/mg of protein
Nitrites, hypothalamus [3, 5]: 6.77 ± 0.46 nmol/mg of protein
Nitrites, midbrain [3, 5]: 5.95 ± 0.52 nmol/mg of protein
Nitrites, striatum [3, 5]: 3.57 ± 0.42 nmol/mg of protein
